{"source": "patent US9662360B2", "about": "“Treatment of herpes, pseudomonas, staph, and hepatitis” (priority 2008, dated 2017)", "key": {"[1]": {"tested_on": "HSV-1", "experiment": "In vitro HSV-1 plaque inhibition on fibroblasts", "type": "cell-based", "description": "Laboratory testing was undertaken at the University Of Chicago, Clinical Microbiology Laboratories to determine inhibitory activity in vitro of the medical treatment and composition (medicine). The laboratory testing was conducted by the Associate Director, PhD, and Associate Professor of Pathology. […] It was stated by the pathologist, that they had tested “hundreds” of other compounds and had never seen anything as good as what this compound did. The following are the tests of the medicine that were conducted and results that were obtained at The University of Chicago. For ease of interpreting some of the scientific data and test results, the following definitions apply: • “MEM” pertains to Minimal Essential Medium. This is the culture medium used in laboratories for growing the cells upon which tests were run. • “Fibroblast” is a mesenchyme human cell (a cell found in connective tissue, blood, bone, lymphatics, and cartilage). • “IC50” pertains to the Inhibitory Concentrate. […] 1. Three 24-compartment plates were inoculated with fibroblasts. […] There were four control compartments on each plate containing MEM without drug. 2. The growth media was removed from the compartments and 200 ul of HSV-1 was added to each compartment of the upper half of each plate. HSV-1 was diluted 1:5000 (2.0 ul of stock HSV-1 in 10 mL of MEM). […] Also, 200 ul of HSV-2 was added to each compartment of the lower half of each plate. HSV-2 was diluted 1:2,000 (5.0 ul of stock HSV-2 in 10 mL of MEM). The virus titer was 6×10^5 per mL. 3. The plates were incubated at 37° C. for two hours. 4. The inoculum was removed and one mL of the MEM containing Drugs #1-3 were added to the four compartments. The concentration of the drug compared to the MEM is indicated below. 1. Three plates were used to screen the three drug preparations. […] There were four control compartments on each plate containing MEM without drug. 2. The growth media was removed from the compartments and 200 ul of HSV-1 was added to each compartment of the upper half of each plate. HSV-1 was diluted 1:5000 (2.0 ul of stock HSV-1 in 10 mL of MEM). […] 3. The plates were incubated at 37° C. for four hours. 4. The inoculum was removed and one mL of the MEM containing drugs #1A-3A were added to the four compartments. 1. Four plates were used to screen the four drug preparations. […] There were four control compartments on each plate containing MEM without drug. 2. The growth media was removed from the compartments and 200 ul of HSV-1 was added to each compartment of the upper two rows of each plate. HSV-1 was diluted 1:5000 (2.0 ul of stock HSV-1 in 10 mL of MEM). […] Also, 200 ul of HSV-2 was added to each compartment of the lower half of each plate. HSV-2 was diluted 1:2,000 (5.0 ul of stock HSV-2 in 10 mL of MEM). The virus titer was 6×10^5 per mL. 3. The plates were incubated at 37° C. for four hours. 4. The inoculum was removed and one mL of the MEM containing drugs #1-4 was added to the four compartments."}, "[2]": {"tested_on": "transmission of virus from chronically infected H9 cells to ME180 cervical epithelial cells", "experiment": "Topical microbicide assay (p24 ELISA)", "type": "cell-based, HIV", "settings": "qualitative", "description": "MEI 180 cervical epithelial cells were plated in the interior walls of a 96-well flat bottom microtiter plate at a density of […] cells per well and incubated overnight. Chronically infected H9 cells wee treated with 200 μg/ml mitomycin C in complete medium for one hour, washed extensively and resuspended at 4×10^5 per ml. […] Antiviral compounds and chronically infected cells (2×10^4) were added to each well containing ME180 cells and incubated for 6 hours. Following co-cultivation the monolayer was washed extensively and fresh medium added. Medium was removed and fresh medium added at 24 and 48 hours post-infection to remove dead lymphocytes. On day 6 post-infection, supernatant samples were removed and analyzed for virus content by p24 ELISA."}, "[3]": {"tested_on": "clinical HIV isolate ROJO in fresh human PBMCs", "experiment": "PBMC/ROJO reverse transcriptase activity assay", "type": "cell-based", "settings": "qualitative; PHA blastogenesis", "description": "A microtiter based reverse transcriptase (RT) reaction was utilized. Tritiated thymidine triphosphate (NEN) (TTP) was resuspended in distilled H2O at 5 Ci/ml. Poly rA and oligo dT were prepared as a stock solution which was kept at −20° C. The RT reaction buffer was prepared fresh on a daily basis and consists of 125 μl MEGTA, 125 μl dH2O, 125 μl Triton X-100, 50 μl 1M Tris (pH 7.4), 50 μl MDTT, and 40 μl MMgCl2. These three solutions were mixed together in a ratio of 1 parts TTP, 2.5 parts poly rA:oligo dT, 2.5 parts reaction, the reaction buffer and 4 parts distilled water. Ten microliters of this reaction mixture was placed in a round bottom microtiter plate and 15 μl of virus containing supernatant was added and mixed. The plate was incubated at 37° C. and incubated for 60 minutes. […] Incorporated radioactivity was quantitated utilizing a Wallac Microbeta scintillation counter. […]\nIn the standard PBL assay (MOI: 0.2), the assay was ended on day 7 following collection of cell free supernatant samples for reverse transcriptase activity assay. In the low MOI PBL assay (MOI: 0.02), supernatant samples were collected on day 6, day 11, and day 14 post-infection and analyzed for […]. […]"}, "[4]": {"tested_on": "HIV-1 clinical isolate ADA in fresh human monocyte-macrophages", "experiment": "Anti-HIV monocyte-macrophage assay (p24 ELISA)", "type": "cell-based", "settings": "for P-24 Activity: vs. ADA", "description": "ELISA kits were purchased from Coulter. The assay is performed according to the manufacturer's recommendations. Prior to ELISA analysis, the reverse transcriptase activity assays were routinely performed and the values were used for incorporated radioactivity in the RT activity assay to determine the dilution of samples required for the ELISA. Control curves were generated in each assay to accurately quantititate the amount of capsid protein in each sample. Data was obtained by spectrophotometric analysis at 450 nm using a Molecular Devices Vmax plate reader. P24 concentrations were calculated from the optical density values by use of the Molecular Devices software package Soft Max.\nFor isolation of a adherent cells, 3×10^6 non-PHA stimulated peripheral blood cells were resuspended in Hanks buffered saline with calcium and magnesium supplemented with 10% human AB serum. The cells were placed in a 24-well microtiter plate at 37° C. for 2 hours. Non-adherent cells were removed by vigorously washing six times. The adherent cells were cultured for 7 days in RPM1 1640 tissue culture medium with 15% fetal bovine serum. The cultures were carefully monitored for confluency during this incubation period. Infection of the cells was performed with the monocytotropic HIV-1 strains BaL or ADA and the matched pair of AZT-sensitive and AZT-resistant virus isolates. Each of these virus isolates was obtained from the NLAID AIDS Research and Reference Reagent Program. High titer pools of each of these viruses have been harvested from infected cultures of peripheral blood adherent cells and frozen in 1.0 ml aliquots at −80° C. Monocyte-macrophage monolayers were infected at an MOI of 0.1. […] Compounds to be evaluated in the monocyte-macrophage assay were added to the monolayers shortly before infection in order to maximize the potential for identifying active compounds.\nAt two days post-infection, the medium was decanted and the cultures washed twice with complete medium in order to remove excess virus. Fresh medium alone or medium containing the appropriate concentration of drugs was added and incubation continued for an additional 5 days. XTT-tetrazolium or trypan blue exclusion assays for cell viability and HIV p24 ELISA assays for production of p24 core antigen were performed on Day 7 post-infection. ELISA kits were purchased from Coulter. Control curves were generated in each assay to accurately quantitate the amount of capsid protein in each sample. Data was obtained by spectrophotometric analysis at 450 nm using a Molecular Devices Vmax plate reader. P24 concentrations were calculated from the optical density values by use of the Molecular Device software package Soft Max."}, "[5]": {"settings": "cited from earlier work"}, "[6]": {"tested_on": "HSV-2", "experiment": "In vitro HSV-2 plaque inhibition on fibroblasts", "type": "cell-based", "description": "Laboratory testing was undertaken at the University Of Chicago, Clinical Microbiology Laboratories to determine inhibitory activity in vitro of the medical treatment and composition (medicine). The laboratory testing was conducted by the Associate Director, PhD, and Associate Professor of Pathology. […] It was stated by the pathologist, that they had tested “hundreds” of other compounds and had never seen anything as good as what this compound did. The following are the tests of the medicine that were conducted and results that were obtained at The University of Chicago. For ease of interpreting some of the scientific data and test results, the following definitions apply: • “MEM” pertains to Minimal Essential Medium. This is the culture medium used in laboratories for growing the cells upon which tests were run. • “Fibroblast” is a mesenchyme human cell (a cell found in connective tissue, blood, bone, lymphatics, and cartilage). • “IC50” pertains to the Inhibitory Concentrate. […] Three 24-compartment plates were inoculated with fibroblasts. […] There were four control compartments on each plate containing MEM without drug. 2. The growth media was removed from the compartments and 200 ul of HSV-1 was added to each compartment of the upper half of each plate. […] Also, 200 ul of HSV-2 was added to each compartment of the lower half of each plate. […] The virus titer was 6×10^5 per mL. 3. The plates were incubated at 37° C. for two hours. 4. The inoculum was removed and one mL of the MEM containing Drugs #1-3 were added to the four compartments. The concentration of the drug compared to the MEM is indicated below. […] Four plates were used to screen the four drug preparations. […] There were four control compartments on each plate containing MEM without drug. 2. The growth media was removed from the compartments and 200 ul of HSV-1 was added to each compartment of the upper two rows of each plate. […] Also, 200 ul of HSV-2 was added to each compartment of the lower half of each plate. […] The virus titer was 6×10^5 per mL. 3. The plates were incubated at 37° C. for four hours. 4. The inoculum was removed and one mL of the MEM containing drugs #1-4 was added to the four compartments."}}, "note": "“And” between values parts separate entries of the source, which are not always exact repeats. Equal values may be shown once."}
{"compound": "Benzalkonium chloride [Drug #1A]", "values": [{"measurement": "plaques", "setting": "[1]; HSV-1, 1:2", "result": "toxic"}, {"measurement": "plaques", "setting": "[1]; HSV-1, 1:4", "result": "toxic"}, {"measurement": "plaques", "setting": "[1]; HSV-1, 1:8", "result": "toxic"}, {"measurement": "plaques", "setting": "[1]; HSV-1, 1:16", "result": "toxic"}, {"measurement": "plaques", "setting": "[1]; HSV-1, 1:32", "result": "toxic"}]}
{"compound": "Dextran sulfate", "values": [{"measurement": "activity in topical microbicide assay", "setting": "[2]", "result": "expected level of activity"}]}
{"compound": "Cc1cn([C@H]2C[C@H](N=[N+]=[N-])[C@@H](CO)O2)c(=O)[nH]c1=O", "note": "[AZT, zidovudine]", "values": [{"measurement": "inhibition of replication of isolate ROJO in fresh human PBMCs", "setting": "[3]", "result": "expected level of activity"}, {"measurement": "activity in monocyte-macrophages infected with ADA", "setting": "[4]; qualitative", "result": "expected level of activity"}, {"measurement": "P-24 Activity", "setting": "[4]; 0.0004 μM", "result": "1005.00 pg/mL and 1252.00 pg/mL and 954.10 pg/mL and 1097.00 pg/mL and 1160.00 pg/mL and 1098.00 pg/mL"}, {"measurement": "P-24 Activity", "setting": "[4]; 0.0014 μM", "result": "919.00 pg/mL and 1150.00 pg/mL and 678.70 pg/mL and 821.90 pg/mL and 594.80 pg/mL and 983.10 pg/mL"}, {"measurement": "P-24 Activity", "setting": "[4]; 0.004 μM", "result": "470.80 pg/mL and 660.90 pg/mL and 912.30 pg/mL and 914.90 pg/mL and 891.20 pg/mL and 499.20 pg/mL"}]}
{"compound": "dextran", "values": [{"measurement": "activity in topical microbicide assay", "setting": "[2]", "result": "expected level of activity"}]}
{"compound": "OCc1ccccc1", "note": "[Benzyl alcohol]", "values": [{"measurement": "solubility in water", "setting": "[5]", "result": 4, "unit": "g/100 mL"}]}
{"compound": "Benzalkonium chloride [Drug #1B]", "values": [{"measurement": "plaques", "setting": "[1]; HSV-1, 1:20", "result": "toxic"}, {"measurement": "plaques", "setting": "[1]; HSV-1, 1:40", "result": "toxic"}, {"measurement": "plaques", "setting": "[1]; HSV-1, 1:80", "result": "toxic"}, {"measurement": "plaques", "setting": "[1]; HSV-1, 1:160", "result": "toxic"}, {"measurement": "plaques", "setting": "[1]; HSV-1, 1:320", "result": "15?* and 18?*"}, {"measurement": "plaques", "setting": "[6]; HSV-2, 1:20", "result": "toxic"}, {"measurement": "plaques", "setting": "[6]; HSV-2, 1:40", "result": "toxic"}, {"measurement": "plaques", "setting": "[6]; HSV-2, 1:80", "result": "toxic"}, {"measurement": "plaques", "setting": "[6]; HSV-2, 1:160", "result": "toxic"}, {"measurement": "Average plaques", "setting": "[6]; HSV-2, 1:320", "result": 19}, {"measurement": "plaques", "setting": "[6]; HSV-2, 1:320", "result": "21 and 17"}]}
